# According to PubChem BioAssay (NCI):
#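 The compound was tested at five concentrations on cells cultured in 96-well plates, with a 48-hour exposure period. Abbreviation: GI50, concentration required for 50% inhibition of growth. The concentration for full growth arrest is given as TGI.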
# Experiments:
# Assay in all cases: DTP human tumour cell line panel, 48 h
# [1] = tested on: A549 NSCLC
# [2] = tested on: HCC-2998 colon
# [3] = tested on: U251 CNS
# [4] = tested on: MOLT-4 leukemia
# [5] = tested on: K-562 leukemia
# [6] = tested on: RXF 393 renal
# [7] = tested on: UACC-62 melanoma
# [8] = tested on: HOP-92 NSCLC
# [9] = tested on: TK-10 renal
# [10] = tested on: SNB-75 CNS
SMILES,TGI [1],TGI [2],TGI [3],TGI [4],TGI [5],TGI [6],TGI [7],TGI [8],TGI [9],TGI [10],GI50 [1],GI50 [2],GI50 [3],GI50 [4],GI50 [10],GI50 [5],GI50 [6],GI50 [7],GI50 [9],GI50 [8]
Nn1c(N=Nc2c(O)[nH]c3c(Cl)cc(Cl)cc23)n[nH]c1=S,> 100 µM,> 100 µM,> 100 µM,> 100 µM,> 100 µM,> 100 µM,> 100 µM,> 100 µM,> 100 µM,,,,,,,,,,,
Cc1cccc(C(C)(C)C)c1NC(=O)CC1Sc2ccccc2NC1=O (configuration not stated),> 100 µM,> 100 µM,> 100 µM,> 100 µM,73.5 µM,,> 100 µM,80 µM,> 100 µM,> 100 µM,,,,,,,,,,
O=[N+]([O-])c1cccc(C2=NOC3C4CCC(C4)C23)c1 (configuration not stated),> 100 µM,> 100 µM,> 100 µM,> 100 µM,,,,> 100 µM,> 100 µM,> 100 µM,,,,,,,,,,
O=C1OC(OCC#CCOC2OC(=O)C(Cl)=C2Cl)C(Cl)=C1Cl (configuration not stated),38.9 µM,14.3 µM,,6.17 µM,,,38.3 µM,,21.8 µM,28.4 µM,,,,,,,,,,
ClCc1ccc(Cn2cnc3c(Cl)nc(Cl)nc32)cc1,37.1 µM,24 µM,3.88 µM,27.4 µM,66.5 µM,41.5 µM,4.4 µM,,20.3 µM,9.32 µM,18.6 µM,10.3 µM,2.05 µM,10.4 µM,3.13 µM,23.3 µM,20.9 µM,2.06 µM,6.68 µM,
Clc1nc(Cl)c2ncn(Cc3ccc(Cn4cnc5c(Cl)nc(Cl)nc54)cc3)c2n1,25.5 µM,24 µM,27.7 µM,16.1 µM,14 µM,0.555 µM,27.8 µM,,35.2 µM,37.6 µM,11.5 µM,11 µM,13.2 µM,3.88 µM,,0.661 µM,,12.5 µM,15.6 µM,
Cc1cc(OCc2nnc3n2N=C(c2ccc(Cl)cc2Cl)CS3)ccc1Cl,> 100 µM,> 100 µM,> 100 µM,> 100 µM,> 100 µM,> 100 µM,> 100 µM,> 100 µM,> 100 µM,,56.3 µM,68.6 µM,71.3 µM,47.7 µM,,54.7 µM,52.2 µM,34.4 µM,32 µM,> 100 µM
CN1C(Cl)=NS(=O)(=O)c2ccccc21,> 100 µM,> 100 µM,> 100 µM,> 100 µM,> 100 µM,> 100 µM,> 100 µM,> 100 µM,> 100 µM,,,,,,,,,,,
COc1ccc2nc(NC(=O)C(=O)C(C#N)c3ccc(Cl)c(Cl)c3)sc2c1 (configuration not stated),> 100 µM,,> 100 µM,,> 100 µM,> 100 µM,> 100 µM,> 100 µM,> 100 µM,> 100 µM,,,,,,,,,,
COC(=O)C1=C(c2ccc3c(c2)OCO3)OC(c2cc(OC)c(OC)c(OC)c2)C1 (configuration not stated),> 100 µM,> 100 µM,> 100 µM,> 100 µM,> 100 µM,,19.2 µM,> 100 µM,> 100 µM,> 100 µM,,,,,,,,,,
CCOC(=O)C1=C(Nc2ccc(Cl)c(Cl)c2)OC/C1=N\NS(=O)(=O)c1ccc(C)cc1,> 100 µM,> 100 µM,> 100 µM,> 100 µM,> 100 µM,> 100 µM,> 100 µM,,> 100 µM,> 100 µM,,,,,,,,,,
Cc1cc(N(CCC#N)CCC#N)ccc1C=Nc1ccc(C(=O)NN2C(=O)/C(=C/c3ccc(N(CCC#N)CCC#N)cc3)N=C2c2cc([N+](=O)[O-])ccc2Cl)cc1,> 100 µM,> 100 µM,> 100 µM,,> 100 µM,> 100 µM,> 100 µM,> 100 µM,> 100 µM,> 100 µM,,,,,,,,,,
O=C(CC1C(=O)Nc2ccccc2S1=O)Nc1ccc(Cl)cc1 (configuration not stated),> 100 µM,> 100 µM,> 100 µM,> 100 µM,> 100 µM,,> 100 µM,83.4 µM,> 100 µM,> 100 µM,,,,,,,,,,
NCCSCCc1ccccc1,> 100 µM,> 100 µM,> 100 µM,,> 100 µM,> 100 µM,> 100 µM,> 100 µM,> 100 µM,> 100 µM,,,,,,,,,,
CNC(=O)OCC1C2=C(C(=O)C(C)=C(N)C2=O)N2CC3C(N3C)C12OC (configuration not stated),29.5 µM,24.8 µM,45.7 µM,36.9 µM,> 100 µM,57.1 µM,22.2 µM,> 100 µM,> 100 µM,,,,,,,,,,,
CC1(C)OC(=O)C=C([O-])O1.CC1(C)OC(=O)C=C([O-])O1.CC[O-].CC[O-].[Ti+4],> 100 µM,> 100 µM,> 100 µM,> 100 µM,> 100 µM,,> 100 µM,,> 100 µM,> 100 µM,> 100 µM,> 100 µM,> 100 µM,> 100 µM,> 100 µM,> 100 µM,,> 100 µM,> 100 µM,
COc1ccc(C2=CC(c3ccc(OC)c(OC)c3)c3c(c4ccccc4oc3=O)O2)cc1OC (configuration not stated),> 100 µM,4.97 µM,> 100 µM,> 100 µM,> 100 µM,,> 100 µM,> 100 µM,> 100 µM,2.17 µM,3.07 µM,1.37 µM,3.19 µM,4.05 µM,0.341 µM,1.02 µM,,0.473 µM,> 24.9 µM,4.8 µM
CC(Br)C(=O)Nc1ccc(C(=O)O)c(O)c1 (configuration not stated),> 100 µM,,62.8 µM,> 100 µM,> 100 µM,> 100 µM,> 100 µM,> 100 µM,> 100 µM,> 100 µM,,,,,,,,,,
CC12Oc3ccc4ccccc4c3CC1Cc1c(ccc3ccccc13)O2 (configuration not stated),> 100 µM,> 100 µM,> 100 µM,,,59.8 µM,,11 µM,> 100 µM,41.3 µM,,,,,,,,,,
COC(=O)C1=CC2OC1(C)CCC2=O (configuration not stated),> 100 µM,> 100 µM,> 100 µM,> 100 µM,> 100 µM,> 100 µM,,,> 100 µM,> 100 µM,,,,,,,,,,
